In ChEMBL document CHEMBL4014283, “Structural insights of SmKDAC8 inhibitors: Targeting Schistosoma epigenetics through a combined structure-based 3D QSAR, in vitro and synthesis strategy” (Bioorg Med Chem, 2017):
The source made the active and inactive calls. The calls are words filed in the database; no cut-off is given here.

Tests used:
[1] = biological target: T1, Histone deacetylase 8 (Schistosoma mansoni) (UniProt A5H660); assay: Inhibition of Schistosoma mansoni KDAC8 at 30 uM using (FAM)-labeled peptide as substrate after 60 mins by microfluidic assay
T1 sequence (whole entry): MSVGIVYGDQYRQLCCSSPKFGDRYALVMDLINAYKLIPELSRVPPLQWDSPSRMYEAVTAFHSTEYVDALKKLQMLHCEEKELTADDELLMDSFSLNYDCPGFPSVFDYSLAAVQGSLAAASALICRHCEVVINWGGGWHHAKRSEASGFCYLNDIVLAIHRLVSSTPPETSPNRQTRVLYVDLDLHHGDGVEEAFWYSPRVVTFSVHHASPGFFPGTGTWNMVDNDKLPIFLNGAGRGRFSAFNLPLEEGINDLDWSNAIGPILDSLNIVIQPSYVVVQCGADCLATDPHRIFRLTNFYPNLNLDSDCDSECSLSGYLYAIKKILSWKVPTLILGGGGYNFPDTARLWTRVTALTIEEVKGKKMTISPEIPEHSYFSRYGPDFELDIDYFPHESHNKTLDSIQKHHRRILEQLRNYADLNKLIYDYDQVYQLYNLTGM

Histone deacetylase 8 = biological target: T2, Histone deacetylase 8 (Schistosoma mansoni, UniProt A5H660); assay: Inhibition of Schistosoma mansoni KDAC8 using (FAM)-labeled peptide as substrate after 60 mins by microfluidic assay
T2 sequence (A5H660 whole entry): T1 sequence (whole entry)

SMILES	inhibition [1]	IC50 (Histone deacetylase 8; read-out: IC50) [µM]	IC50 (Histone deacetylase 8; read-out: pIC50 (converted)) [µM]	pIC50 (Histone deacetylase 8)
O=C(O)CCCCN1C(=O)[C@H](CC(=O)O)N=C(c2ccccc2)c2ccccc21	0%	> 30		
O=C(CCCCN1C(=O)[C@H](Cc2cc3ccccc3[nH]2)N=C(c2ccccc2)c2ccccc21)NO	19.7%	> 30		
CC(C)(C)OC(=O)NCCCC[C@@H]1N=C(c2ccccc2)c2ccccc2N(CCCCC(=O)O)C1=O	0%	> 30		
O=C(C[C@@H]1N=C(c2ccccc2)c2ccccc2NC1=O)NO	0%	> 30		
CN(C)c1ccc(C(=O)NCc2ccc(C(=O)NO)cc2)cc1			2.88	
CN1CCc2c(c3ccccc3n2Cc2ccc(C(=O)NO)cc2)C1 [TUBASTATIN A]			1.48	
O=C(CCCCN1C(=O)[C@H](CC(=O)NO)N=C(c2ccccc2)c2ccccc21)NO	5.21%	> 30		
Cc1ccc(CN(Cc2ccc(C(=O)NO)cc2)S(=O)(=O)c2ccc(F)c(C)c2)cc1			5.62	
O=C(NO)C1CCN(S(=O)(=O)c2ccc3c(c2)CCC3)CC1			3.02	
O=C(CC[C@@H]1N=C(c2ccccc2)c2ccccc2NC1=O)NO	25.9%	> 30		
COC(=O)CCCCN1C(=O)[C@H](CCCCNC(=O)OC(C)(C)C)N=C(c2ccccc2)c2ccccc21	0%	> 30		
CC(C)C[C@@H]1N=C(c2ccccc2)c2ccccc2NC1=O	0%	> 30		
COC(=O)CCCCN1C(=O)[C@H](Cc2cncn2C(c2ccccc2)(c2ccccc2)c2ccccc2)N=C(c2ccccc2)c2ccccc21	2.5%	> 30		
Cc1[nH]c2ccccc2c1CCNCc1ccc(/C=C/C(=O)NO)cc1 [PANOBINOSTAT]		0.45		
Cc1c(C)c(S(=O)(=O)NC(=N)NCCC[C@@H]2N=C(c3ccccc3)c3ccccc3N(CCCCC(=O)O)C2=O)c(C)c2c1OC(C)(C)C2	0%	> 30		
CC(C)(C)OC[C@@H]1N=C(c2ccccc2)c2ccccc2N(CCCCC(=O)NO)C1=O	15.7%	> 30		
NC(=O)CC[C@@H]1N=C(c2ccccc2)c2ccccc2N(CCCCC(=O)NO)C1=O	11.6%	> 30		
COC(=O)CCCCN1C(=O)[C@H](CCCNC(=N)NS(=O)(=O)c2c(C)c(C)c3c(c2C)CC(C)(C)O3)N=C(c2ccccc2)c2ccccc21	0%	> 30		
CCCCCC(=O)NO			2.51	
CCC(=O)CCCCC[C@@H]1NC(=O)C2CCCCN2C(=O)[C@H](C(C)CC)NC(=O)[C@H](Cc2cn(OC)c3ccccc23)NC1=O (stereo partly drawn)		28.8		

SMILES	inhibition [1]	IC50 (Histone deacetylase 8; read-out: IC50) [µM]	IC50 (Histone deacetylase 8; read-out: pIC50 (converted)) [µM]	pIC50 (Histone deacetylase 8)
CC(C)(C)SC[C@H]1N=C(c2ccccc2)c2ccccc2N(CCCCC(=O)O)C1=O	0%	> 30		
CC[C@H](C)[C@@H]1N=C(c2ccccc2)c2ccccc2N(CCCCC(=O)O)C1=O	0%	> 30		
COC(=O)CCCCN1C(=O)[C@H]([C@@H](C)OCc2ccccc2)N=C(c2ccccc2)c2ccccc21	0%	> 30		
COC(=O)[C@H](Cc1ccccc1)NC(=O)CCCCCCCCC(=O)NO			0.794	
CC(C)(C)OC(=O)CC[C@@H]1N=C(c2ccccc2)c2ccccc2NC1=O	0%	> 30		
Cn1cc(C2=C(c3cn(CCCCCC(=O)NO)c4ccccc34)C(=O)NC2=O)c2ccccc21			1.41	
CC(C)(C)SC[C@H]1N=C(c2ccccc2)c2ccccc2NC1=O	0%	> 30		
CC(C)[C@@H]1N=C(c2ccccc2)c2ccccc2N(CCCCC(=O)O)C1=O	0%	> 30		
CN(C)Nc1cccc(C(=O)NO)c1			1.58	
O=C(NO)c1sc2ccccc2c1Cl			4.37	
CN(C)c1ccc(C(=O)NCC2CCC(C(=O)NO)CC2)cc1 (stereo not drawn)			12	
N[C@H](Cc1ccc(Cl)cc1Cl)C(=O)N1Cc2ccccc2C1		29.1		
O=C1CN=C(c2ccccc2)c2ccccc2N1 [RO-052921]	9.5%	> 30		
CCCCCCCC(=O)SCC/C=C/[C@@H]1CC(=O)NCc2nc(cs2)C2=N[C@@](C)(CS2)C(=O)N[C@@H](C(C)C)C(=O)O1 [LARGAZOLE]	4%	> 30		
O=C(CCCCCCC(=O)Nc1cccc(C(=O)O)c1)NO			1.91	
COC(=O)CCCCN1C(=O)[C@H](CC(=O)OC(C)(C)C)N=C(c2ccccc2)c2ccccc21	0%	> 30		
COC(=O)CCCCN1C(=O)[C@H](CCC(=O)OC(C)(C)C)N=C(c2ccccc2)c2ccccc21	0%	> 30		
Nc1ccccc1NC(=O)c1ccc(-c2cn(CCc3ccsc3)nn2)cc1	inactive	> 30		
O=C1Nc2ccccc2C(c2ccccc2)=N[C@H]1Cc1ccccc1	0%	> 30		
COC(=O)CCCCN1C(=O)[C@H](Cc2ccc(OC(C)(C)C)cc2)N=C(c2ccccc2)c2ccccc21	0%	> 30		

SMILES	inhibition [1]	IC50 (Histone deacetylase 8; read-out: IC50) [µM]	IC50 (Histone deacetylase 8; read-out: pIC50 (converted)) [µM]	pIC50 (Histone deacetylase 8)
O=C(CCCCN1C(=O)[C@H](CC(=O)NC(c2ccccc2)(c2ccccc2)c2ccccc2)N=C(c2ccccc2)c2ccccc21)NO	52.3%	26.3		
O=C(O)C[C@@H]1N=C(c2ccccc2)c2ccccc2NC1=O	0%	> 30		
NCCCC[C@@H]1N=C(c2ccccc2)c2ccccc2N(CCCCC(=O)NO)C1=O	4.32%	> 30		
CC(C)(C)OC(=O)n1c(C[C@@H]2N=C(c3ccccc3)c3ccccc3N(CCCCC(=O)O)C2=O)cc2ccccc21	0%	> 30		
O=C(C[C@H]1N=C(c2ccccc2)c2ccccc2NC1=O)NO	0%	> 30		
C[C@@H](OCc1ccccc1)[C@@H]1N=C(c2ccccc2)c2ccccc2N(CCCCC(=O)NO)C1=O	20.5%	> 30		
C[C@@H](O)[C@@H]1N=C(c2ccccc2)c2ccccc2N(CCCCC(=O)NO)C1=O	0.91%	> 30		
CC(C)(C)OC(=O)C[C@H]1N=C(c2ccccc2)c2ccccc2NC1=O	0%	> 30		
C[C@@H]1N=C(c2ccccc2)c2ccccc2N(CCCCC(=O)NO)C1=O	16.9%	> 30		
CC(C)(C)OC(=O)C[C@@H]1N=C(c2ccccc2)c2ccccc2NC1=O	0%	> 30		
CC(C)(C)OC(=O)n1cc(C[C@@H]2N=C(c3ccccc3)c3ccccc3NC2=O)c2ccccc21	11.9%	> 30		
CC(C)[C@@H]1NC(=O)[C@H]2CCCN2C(=O)[C@@H]2CCCN2C(=O)C[C@H](C(=O)NCCCC(=O)NO)NC1=O	< 26%	> 30		
C[C@H]1Sc2ccc(C(=O)NO)cc2NC1=O			1.48	
O=C(NO)c1cccc(NN(Cc2ccccc2)Cc2ccccc2)c1			9.33	
O=C(CCCCCN1C(=O)c2cccc3cccc(c23)C1=O)NO		1.77		
COc1ccc(Cn2ccc3ccc(C(=O)NO)cc32)cc1				1.03 to 6.36
CN(C)c1ccc(C(=O)NCCCCCCC(=O)NO)cc1			3.16	
O=C(CCCCCC(=O)N/N=C/c1ccc(-c2ccccc2)cc1)NO			0.891	
O=C(CS)NCCCCCC(=O)Nc1ccccc1			50.1	
CC(/C=C/C(=O)NO)=C\[C@@H](C)C(=O)c1ccc(N(C)C)cc1 [TRICHOSTATIN]		3.62		
